What is called inhibition is the change of the read-out against control, counted positive when it falls.

Assay [1] deals with T1, human recombinant adrenergic α2B receptor (Homo sapiens, UniProt P18089).
T1 construct: expressed in transfected cells; host or cells: Chinese hamster ovary (CHO-K1) cells
T1 sequence (P18089 1-450): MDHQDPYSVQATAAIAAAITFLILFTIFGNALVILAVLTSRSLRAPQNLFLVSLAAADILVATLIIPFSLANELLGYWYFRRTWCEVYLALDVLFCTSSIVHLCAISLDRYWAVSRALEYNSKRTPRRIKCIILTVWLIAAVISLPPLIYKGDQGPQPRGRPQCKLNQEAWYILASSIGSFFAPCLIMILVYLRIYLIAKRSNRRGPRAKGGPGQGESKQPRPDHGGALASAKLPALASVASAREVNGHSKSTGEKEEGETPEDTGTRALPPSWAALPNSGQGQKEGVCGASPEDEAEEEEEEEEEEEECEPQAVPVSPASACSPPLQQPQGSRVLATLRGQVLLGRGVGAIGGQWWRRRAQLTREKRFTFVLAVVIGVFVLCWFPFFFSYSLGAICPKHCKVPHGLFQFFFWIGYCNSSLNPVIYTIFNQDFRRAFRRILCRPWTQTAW
The assay is described as follows: Adrenergic α2B radioligand binding assay ([3H]Rauwolscine). As to conditions: 2.5 nM [3H]Rauwolscine, CHO-K1 cells; for inhibition at 1 µM: compound at 1 μM, read-out: Percent Inhibition of ligand binding, Adrenergic (1 μM) a2B; for inhibition at 0.1 µM: compound at 0.1 μM, read-out: Percent Inhibition of ligand binding, Adrenergic (0.1 μM) a2B. How it is done: To evaluate in radioligand binding assays the activity of compounds of the invention, human recombinant adrenergic α2B receptor expressed in Chinese hamster ovary (CHO-K1) cells (Uhlen S et al., Eur. J. Pharmacol. 343(1):93, 1998) in a modified Tris-HCl buffer (50 mM Tris-HCl, pH 7.4, 12.5 mM MgCl2, 1 mM EDTA, 0.2% BSA) was used. Compounds of the invention were incubated with 2.5 nM [^3H]Rauwolscine for 60 min at 25° C. Non-specific binding was estimated in the presence of 10 μM Prozosin. Receptor proteins were filtered and washed, the filters were then counted to determine [^3H]Rauwolscine specifically bound.

Assay [2] concerns the target human recombinant serotonin (5-Hydroxytryptamine) 5-HT7 receptor (Homo sapiens, UniProt P34969). The assay is described as follows: Serotonin 5-HT7 radioligand binding assay ([3H]LSD). The note with it: 5.5 nM [3H]LSD, CHO cells; for inhibition at 1 µM: compound at 1 μM, read-out: Percent Inhibition of ligand binding, Serotonin (1 μM) 5-HT7; for inhibition at 0.1 µM: compound at 0.1 μM, read-out: Percent Inhibition of ligand binding, Serotonin (0.1 μM) 5-HT7. How it is done: Compounds of invention were incubated with 5.5 nM [^3H] Lysergic acid diethylamide (LSD) for 2 h at 25° C. […] Receptor proteins were filtered and washed, the filters were then counted to determine [^3H]LSD specifically bound. Compounds were screened at 1 μM or lower, using 1% DMSO as vehicle. Biochemical assay results are presented as the percent inhibition of specific binding in Table 4.

For assay [3], the target named is human recombinant dopamine D2L receptor (Homo sapiens, UniProt P14416). Kind of assay: Dopamine D2L radioligand binding assay ([3H]Spiperone). As to conditions: compound at 1 μM, 0.16 nM [3H]Spiperone, CHO cells, read-out: Percent Inhibition of ligand binding, Dopamine (1μM). In a few lines:
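Test compounds at 1 μM or lower (1% DMSO vehicle) incubated with 0.16 nM [3H]Spiperone for 120 min at 25 °C; nonspecific binding defined with 10 μM haloperidol. Filtration and counting of bound radioligand; values given as percent inhibition of specific binding.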

In assay [4] the target is T2, human recombinant histamine H2 receptor (Homo sapiens, UniProt P25021).
T2 construct: expressed in transfected cells; host or cells: Chinese hamster ovary (CHO) K1 cells
T2 sequence (P25021 whole entry): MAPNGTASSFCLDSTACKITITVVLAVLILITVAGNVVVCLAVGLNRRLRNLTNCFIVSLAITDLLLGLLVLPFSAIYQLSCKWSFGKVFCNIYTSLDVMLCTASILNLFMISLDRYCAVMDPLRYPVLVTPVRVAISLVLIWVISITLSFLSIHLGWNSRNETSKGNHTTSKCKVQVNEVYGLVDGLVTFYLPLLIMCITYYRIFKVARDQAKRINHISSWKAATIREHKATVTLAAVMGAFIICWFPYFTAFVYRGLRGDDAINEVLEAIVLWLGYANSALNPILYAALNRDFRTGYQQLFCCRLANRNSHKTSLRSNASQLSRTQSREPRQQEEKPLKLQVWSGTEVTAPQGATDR
Kind of assay: Histamine H2 radioligand binding assay ([125I]Aminopotentidine). As to conditions: compound at 1 μM; 0.1 nM [125I]Aminopotentidine; receptor expressed in CHO-K1 cells. How it is done:
To evaluate in radioligand binding assays the activity of compounds of the invention, human recombinant histamine H2 receptor expressed in Chinese hamster ovary (CHO) K1 cells (Ruat, M., Proc. Natl. Acad. Sci. USA. 87(5):1658, 1990) in a 50 mM Phosphate buffer, pH 7.4 was used. Compounds of the invention were incubated with 0.1 nM [^125I]Aminopotentidine for 120 min at 25° C. Non-specific binding was estimated in the presence of 3 μM Tiotidine. Receptor proteins were filtered and washed, the filters were then counted to determine [^125I]Aminopotentidine specifically bound. Compounds were screened at 1 μM or lower, using 1% DMSO as vehicle. Biochemical assay results are presented as the percent inhibition of specific binding in Table 2.

Assay [5] addresses T3, human recombinant serotonin (5-Hydroxytryptamine) 5-HT5A receptor (Homo sapiens, UniProt P47898).
T3 construct: expressed in transfected cells; host or cells: Chinese hamster ovary (CHO-K1) cells
Kind of assay: Serotonin 5-HT5A radioligand binding assay ([3H]LSD). As to conditions: compound at 0.1 μM; 1.7 nM [3H]LSD; CHO-K1 cells; read-out: Percent Inhibition of ligand binding, Serotonin (0.1 μM) 5-HT5A. How it is done: Compounds of the invention were incubated with 1.7 nM [^3H]Lysergic acid diethylamide (LSD) for 60 min at 37° C. […] Receptor proteins were filtered and washed, the filters were then counted to determine [^3H]LSD specifically bound. Compounds were screened at 1 μM or lower, using 1% DMSO as vehicle. Compounds of the invention were tested in this biochemical assay and percent inhibition of specific binding was determined. Biochemical assay results are presented as the percent inhibition of specific binding in Table 4.

Each structure is given as a SMILES string.

human recombinant dopamine D2L receptor, sequence (P14416 whole entry): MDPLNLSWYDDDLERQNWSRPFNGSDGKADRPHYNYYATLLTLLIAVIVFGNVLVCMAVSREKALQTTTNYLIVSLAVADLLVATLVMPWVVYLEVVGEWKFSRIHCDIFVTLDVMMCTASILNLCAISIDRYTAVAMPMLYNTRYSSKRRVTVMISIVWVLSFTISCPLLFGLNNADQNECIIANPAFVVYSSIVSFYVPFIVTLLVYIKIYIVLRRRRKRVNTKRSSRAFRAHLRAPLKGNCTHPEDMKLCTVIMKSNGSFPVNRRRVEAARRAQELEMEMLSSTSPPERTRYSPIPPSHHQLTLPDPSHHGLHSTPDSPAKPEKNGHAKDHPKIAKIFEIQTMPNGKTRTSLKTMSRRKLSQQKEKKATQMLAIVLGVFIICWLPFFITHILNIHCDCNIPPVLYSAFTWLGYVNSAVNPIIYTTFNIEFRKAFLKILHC
T3 sequence (P47898 whole entry): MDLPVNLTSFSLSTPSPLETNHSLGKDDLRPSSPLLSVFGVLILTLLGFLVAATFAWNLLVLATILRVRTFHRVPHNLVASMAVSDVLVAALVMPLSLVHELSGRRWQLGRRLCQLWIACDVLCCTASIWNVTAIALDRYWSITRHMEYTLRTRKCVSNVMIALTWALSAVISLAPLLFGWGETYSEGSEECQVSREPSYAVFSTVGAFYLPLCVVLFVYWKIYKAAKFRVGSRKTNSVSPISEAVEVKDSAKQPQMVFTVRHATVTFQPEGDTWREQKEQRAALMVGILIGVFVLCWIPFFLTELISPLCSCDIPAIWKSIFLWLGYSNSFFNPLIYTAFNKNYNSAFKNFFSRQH
human recombinant serotonin (5-Hydroxytryptamine) 5-HT7 receptor, sequence (P34969 whole entry): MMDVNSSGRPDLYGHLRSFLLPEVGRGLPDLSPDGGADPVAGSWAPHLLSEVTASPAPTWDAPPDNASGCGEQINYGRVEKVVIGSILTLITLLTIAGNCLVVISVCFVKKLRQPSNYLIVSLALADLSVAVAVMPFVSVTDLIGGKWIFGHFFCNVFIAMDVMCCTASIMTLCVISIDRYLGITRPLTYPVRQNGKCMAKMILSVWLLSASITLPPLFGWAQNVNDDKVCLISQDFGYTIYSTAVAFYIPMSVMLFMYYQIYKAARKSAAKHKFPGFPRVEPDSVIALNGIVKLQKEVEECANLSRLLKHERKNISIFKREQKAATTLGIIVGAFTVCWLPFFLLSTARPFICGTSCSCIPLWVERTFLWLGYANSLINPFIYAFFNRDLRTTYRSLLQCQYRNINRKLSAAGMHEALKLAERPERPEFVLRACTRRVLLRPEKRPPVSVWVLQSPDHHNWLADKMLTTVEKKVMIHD

On to `CN1CCc2c(c3cc(Cl)ccc3n2CC(=O)c2ccc(F)cc2)C1` [Compound 1-37, 2-(8-chloro-2-methyl-3,4-dihydro-1H-pyrido[4,3-b]indol-5(2H)-yl)-1-(4-fluorophenyl)ethanone], for which the inhibition at 1 µM in assay [1] amounted to 87%; in assay [2], 73%; in assay [3] it was 85%; in assay [4], 80%.

`CC[C@](O)(Cn1c2c(c3cc(C)ccc31)CN(C)CC2)c1ccc(F)cc1` [Compound 1-60, (R)-1-(2,8-Dimethyl-3,4-dihydro-1H-pyrido[4,3-b]indol-5(2H)-yl)-2-(4-fluorophenyl)butan-2-ol]: the inhibition at 0.1 µM in assay [1] came out at 1%; in assay [2] it was 16%; in assay [5], 26%. Moreover, in assay [3], the inhibition at 1 µM is -14%.

As to `Cc1ccc2c(c1)c1c(n2CC(=O)c2ccccc2)CCN(C)C1` [Compound 1-35, 2-(2,8-dimethyl-3,4-dihydro-1H-pyrido[4,3-b]indol-5(2H)-yl)-1-phenylethanone], the figures for the inhibition at 1 µM in assay [1], in assay [3] and in assay [4] were 59%, 4% and 11%, respectively.

As to `CC[C@](O)(Cn1c2c(c3cc(C)ccc31)CN(C)CC2)c1ccncc1` [Compound 1-63, (R)-1-(2,8-Dimethyl-3,4-dihydro-1H-pyrido[4,3-b]indol-5(2H)-yl)-2-(pyridine-4-yl)butan-2-ol], the inhibition at 0.1 µM came out at 47% in assay [1], 25% in assay [2] and 15% in assay [5]. The inhibition at 1 µM in assay [3] worked out at 14%.

Turning to `CN1CCc2c(c3cc(Cl)ccc3n2CC(=O)c2ccc(Cl)cc2)C1` [Compound 1-38, 2-(8-chloro-2-methyl-3,4-dihydro-1H-pyrido[4,3-b]indol-5(2H)-yl)-1-(4-chlorophenyl)ethanone], the inhibition at 1 µM in assay [1] turned out to be 92%; in assay [2], 81%; in assay [3], 44%; in assay [4], 56%.

In the case of `Cc1ccc2c(c1)c1c(n2CC(C)(O)c2ccc(O)cc2)CCN(C)C1` (centres unmarked) [Compound 1-15, 4-(1-(2,8-dimethyl-3,4-dihydro-1H-pyrido[4,3-b]indol-5(2H)-yl)-2-hydroxypropan-2-yl)phenol], the inhibition at 0.1 µM in assay [1] is 103%.

`COc1ccc([C@](C)(O)Cn2c3c(c4cc(C)ccc42)CN(C)CC3)cc1` [Compound 1-20, (S)-1-(2,8-Dimethyl-3,4-dihydro-1H-pyrido[4,3-b]indol-5(2H)-yl)-2-(4-methoxyphenyl)propan-2-ol]: in assay [1], the inhibition at 0.1 µM came out at 79%.

With `CC[C@@](O)(Cn1c2c(c3cc(C)ccc31)CN(C)CC2)c1ccc(F)cc1` [Compound 1-66, (S)-1-(2,8-dimethyl-3,4-dihydro-1H-pyrido[4,3-b]indol-5(2H)-yl)-2-(4-fluorophenyl)butan-2-ol], the figures for the inhibition at 0.1 µM in assay [2] and in assay [5] were 19% and 31%, respectively. Also, the inhibition at 1 µM in assay [3] turned out to be 6%.

Turning to `Cc1ccc2c(c1)c1c(n2CC(C)(C)c2ccncc2)CCN(C)C1` [Compound 1-49, 2,8-dimethyl-5-(2-methyl-2-(pyridin-4-yl)propyl)-2,3,4,5-tetrahydro-1H-pyrido[4,3-b]indole], in assay [2], the inhibition at 0.1 µM is 95%. The inhibition at 1 µM in assay [3] came to 54%.

Take `CC[C@@](O)(Cn1c2c(c3cc(C)ccc31)CN(C)CC2)c1ccncc1` [Compound 1-62, (S)-1-(2,8-Dimethyl-3,4-dihydro-1H-pyrido[4,3-b]indol-5(2H)-yl)-2-(pyridine-4-yl)butan-2-ol]: the inhibition at 0.1 µM is 30% in assay [2] and 6% in assay [5]. Further, the inhibition at 1 µM in assay [3] was 9%.

In the case of `Cc1ccc2c(c1)c1c(n2CCc2ccc(C)nc2)CCN(CCCO)C1` [Compound 1-42, 3-(8-methyl-5-(2-(6-methylpyridin-3-yl)ethyl)-3,4-dihydro-1H-pyrido[4,3-b]indole-2(5H)-yl)propan-1-ol], the inhibition at 1 µM in assay [1] was 39%; in assay [2], 63%; in assay [3], 11%; in assay [4], 16%.

Consider `Cc1ccc2c(c1)c1c(n2CCc2ccc(C(F)(F)F)nc2)CCNC1` [Compound 1-41, 8-methyl-5-(2-(6-(trifluoromethyl)pyridin-3-yl)ethyl)-2,3,4,5-tetrahydro-1H-pyrido[4,3-b]indole], for which the inhibition at 1 µM in assay [1] is 89%; in assay [2], 59%; in assay [3], -8%; in assay [4] it was 6%.

With `Cc1ccc2c(c1)c1c(n2CC(=O)c2ccc(F)cc2)CCN(C)C1` [Compound 1-39, 2-(2,8-dimethyl-3,4-dihydro-1H-pyrido[4,3-b]indol-5(2H)-yl)-1-(4-fluorophenyl)ethanone], the inhibition at 1 µM in assay [1] was found to be 92%; in assay [2] it was 95%; in assay [3] it was 57%; in assay [4], 66%.

As to `CN1CCc2c(c3cc(Cl)ccc3n2CC(=O)c2ccccc2)C1` [Compound 1-36, 2-(8-chloro-2-methyl-3,4-dihydro-1H-pyrido[4,3-b]indol-5(2H)-yl)-1-phenylethanone], the inhibition at 1 µM was 92% in assay [1], 73% in assay [3] and 48% in assay [4].

`Cc1ccc2c(c1)c1c(n2CCc2ccc(CCCN)nc2)CCN(C)C1` [Compound 1-40, 3-(5-(2-(2,8-dimethyl-3,4-dihydro-1H-pyrido[4,3-b]indol-5(2H)-yl)ethyl)pyridin-2-yl)propan-1-amine]: the inhibition at 1 µM in assay [1] came to 63%; in assay [3], 3%; in assay [4], 18%.

As for `CN1CCc2c(c3cc(Cl)c(Cl)cc3n2CC(C)(O)c2ccncc2)C1` (centres unmarked) [Compound 1-17, 1-(7,8-dichloro-2-methyl-3,4-dihydro-1H-pyrido[4,3-b]indol-5(2H)-yl)-2-(pyridin-4-yl)propan-2-ol], the inhibition at 0.1 µM in assay [1] was found to be 64%.

On to `Cc1ccc2c(c1)c1c(n2CCc2ccc(C)nc2)CCN(CCC#N)C1` [Compound 1-34, 3-(8-methyl-5-(2-(6-methylpyridin-3-yl)ethyl)-3,4-dihydro-1H-pyrido[4,3-b]indol-2(5H)-yl)propanenitrile], for which the inhibition at 1 µM in assay [1] is 23%; in assay [3], -4%; in assay [4], 0%.

In the case of `Cc1ccc2c(c1)c1c(n2CC(C)c2ccncc2)CCN(C)C1` (centres unmarked) [Compound 1-46, 2,8-dimethyl-5-(2-(pyridin-4-yl)propyl)-2,3,4,5-tetrahydro-1H-pyrido[4,3-b]indole], the inhibition at 0.1 µM in assay [2] was 93%. Further, in assay [3], the inhibition at 1 µM stood at 37%.
